Reference: EP0199262A2, “Fluorinated benzyl triazole compounds” (CIBA-GEIGY AG, priority 1985, dated 1986)

Legend:
[1] = tested on: durch Elektroschock ausgelöste Konvulsionen; assay: Protection against electroshock-induced convulsions, mouse; assay type: in vivo, Maus; settings: po, read-out: effektive Dosis ED50
Procedure: (§1) Die neuen Verbindungen besitzen wertvolle pharmakologische Eigenschaften, insbesondere eine ausgeprägte antikonvulsive Wirksamkeit, die sich beispielsweise an der Maus anhand eines deutlichen Metrazol-Antagonismus im Dosisbereicn von etwa 30 bis 300 mg/kg p.o. sowie an Maus und Ratte anhand einer ausgeprägten Schutzwirkung gegen durch Elektroschock ausgelöste Konvulsionen im Dosisbereich von etwa 1 bis etwa 50, in den meisten Fällen von etwa 1 bis etwa 25 mg/kg p.o. zeigen lässt. In diesem Modell wurden beispielsweise die folgenden Werte für die effektive Dosis ED50 in mg/kg p.o. erhalten (1 h Vorapplikation): • 1-(2,6-Difluorbenzyl)-1 H-1,2,3-triazof-4-carboxamid: 17 (Maus bzw. 8 (Ratte); • 1-(o-Fluorbenzyl)-1H-1,2,34dazol-4-carboxamid: 17 (Maus, Ratte); • 1-(2,6-Difluorbenzyl)-1 H-1,2,3-triazol-4,5-dicarboxamid: 4 (Maus, Ratte); • 1-(6-Chlor-2-fluor-phenyl)-1 H-1,2,3-triazol-4,5-dicarboxamid: 7 (Maus) bzw. 10 (Ratte), • 1-(o-Fluorphenyl)-1H-1,2,3-triazof-4,5-dicarboxamid: 6 (Maus) bzw. 10 (Ratte); • 1-(6-Chlor-2-fluar-phenyl)-1H-1,2,3-triazol-4-carboxamid: 11 (Maus); 1-(2,5-Difluorbenzyl)-1H-1,2,3-triazol-4,5-dicarboxamid: 6 (Maus).
(§2) Die erfindungsgemäss bereitgestellten fluorierten 1-(a-Phenylalkyl)-1H-1,2,3-triazolverbindungen der Formel (I) weisen ihren als antikonvulsiv wirksam bekannten Chloranalogen gegenüber den Vorteil einer verbesserten Wirksamkeit auf. So ergaben sich in obigem Modell z.B. folgende Ed50-Werte: • 1-(o-Chlorbenzyl)-1 H-1,2,3-triazol-4-carboxamid: 26 (Maus) bzw. 25 (Ratte) und • 1-(o-Chlorbenzyl)-1 H-1,2,3-triazol-4,5-dicarboxamid: 40 (Maus) bzw. 43 (Ratte).

[2] = tested on: durch Elektroschock ausgelöste Konvulsionen; assay: Protection against electroshock-induced convulsions, rat; assay type: in vivo, Ratte; settings: po, read-out: effektive Dosis ED50
Procedure: as §1, §2

[3] = Maus, electroshock, p.o., 1 h Vorapplikation
[4] = Ratte, electroshock, p.o., 1 h Vorapplikation

Compound `NC(=O)c1nnn(Cc2cc(F)ccc2F)c1C(N)=O` [1-(2,5-Difluorbenzyl)-1H-1,2,3-triazol-4,5-dicarboxamid] has an ED50 [1, 3] of 6 mg/kg.
With `NC(=O)c1cn(Cc2c(F)cccc2F)nn1` [1-(2,6-Difluorbenzyl)-1 H-1,2,3-triazol-4-carboxamid] the ED50 [1, 3] was 17 mg/kg and the ED50 [2, 4] was 8 mg/kg.
For `NC(=O)c1nnn(Cc2c(F)cccc2F)c1C(N)=O` [1-(2,6-Difluorbenzyl)-1H-1,2,3-triazol-4,5-dicarboxamid], the ED50 [1, 3] was 4 mg/kg and the ED50 [2, 4] was 4 mg/kg.
Compound `NC(=O)c1nnn(Cc2c(F)cccc2Cl)c1C(N)=O` [1-(6-Chlor-2-fluor-benzyl)-1 H-1,2,3-triazol-4,5-dicarboxamid] has an ED50 [1, 3] of 7 mg/kg and an ED50 [2, 4] of 10 mg/kg.
`NC(=O)c1cn(Cc2c(F)cccc2Cl)nn1` [1-(6-Chlor-2-fluor-benzyl)-1H-1,2,3-triazol-4-carboxamid] showed an ED50 ([1]; 1 h) of 11 mg/kg.
In the case of `NC(=O)c1nnn(Cc2ccccc2Cl)c1C(N)=O` [1-(o-Chlorbenzyl)-1 H-1,2,3-triazol-4,5-dicarboxamid, reference compound], the ED50 [1, 3] is reported as 40 mg/kg and the ED50 [2, 4] is reported as 43 mg/kg.
For `NC(=O)c1cn(Cc2ccccc2Cl)nn1` [1-(o-Chlorbenzyl)-1 H-1,2,3-triazol-4-carboxamid, reference compound], the ED50 ([1]; 1 h) was 26 mg/kg and the ED50 ([2]; 1 h) was 25 mg/kg.
Work on `NC(=O)c1nnn(Cc2ccccc2F)c1C(N)=O` [1-(o-Fluorbenzyl)-1 H-1,2,3,-triazol-4,5-dicarboxamid] yielded an ED50 [1, 3] of 6 mg/kg and an ED50 [2, 4] of 10 mg/kg.
For `NC(=O)c1cn(Cc2ccccc2F)nn1` [1-(o-Fluorbenzyl)-1 H-1,2,3-triazol-4-carboxamid], the ED50 ([1]; 1 h) was 17 mg/kg and the ED50 ([2]; 1 h) was 17 mg/kg.
